From patent publication US6153589A, “2,3-epoxy alcohols, acids and derivatives as anti retroviral chemotherapeutic agents” (The United States of America as represented by the …, priority 1992, dated 2000)
Where two headings read alike, the source gives them in different places.

How the values were obtained:
porcine Renin = biological target: T1, porcine Renin (Sus scrofa, UniProt A0A287APG1); assay: Porcine Renin cleavage of porcine tetradecapeptide (HPLC); format: biochemical; conditions: 0.5 μl of 50 μg/μl inhibitor in DMSO in 50 μl; pH 6.00, room temperature, 70 min; relative to uninhibited control
T1 construct: purchased Sigma
T1 sequence (A0A287APG1 24-407): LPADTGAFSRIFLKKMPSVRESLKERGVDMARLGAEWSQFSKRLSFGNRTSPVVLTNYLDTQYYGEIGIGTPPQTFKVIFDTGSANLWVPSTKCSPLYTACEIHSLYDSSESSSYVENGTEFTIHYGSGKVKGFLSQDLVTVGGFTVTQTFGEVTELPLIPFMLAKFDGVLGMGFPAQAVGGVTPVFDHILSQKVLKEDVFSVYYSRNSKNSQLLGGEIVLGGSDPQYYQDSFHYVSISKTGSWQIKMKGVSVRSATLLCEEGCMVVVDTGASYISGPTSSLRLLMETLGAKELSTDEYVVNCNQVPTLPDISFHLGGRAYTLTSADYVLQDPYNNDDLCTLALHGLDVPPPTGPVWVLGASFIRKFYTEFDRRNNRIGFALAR
Text: Renin Activity: Porcine Renin Cleavage of Porcine Tetradecapeptide
Proteolytic enzymes are ubiquitous in many living systems. Renin is an asparxyl protease found in mammals which is responsible for the regulation of blood pressure. Structural and functional similarities between Renin and retroviral proteases have been previously noted (Pearl, L. H., Taylor, W. R., (1987) Nature, 329, 351-354). Consequently, successful therapeutic inhibition of retroviral proteases depends on the ability of the inhibitor to inhibit the retroviral enzyme while having a greatly diminished effect on normally occurring enzymes like Renin. The failure to inhibit the desired enzyme selectively may have an adverse effect on normal biochemical functions. The similarity of Renin to retroviral proteases and its viral normal bodily function makes it an attractive system in which to examine inhibitory selectivity.
Renin activity was determined by a method similar to that described above for the HIV protease. A solution containing 0.37 m unit (0.5 μl of stock solution containing 0.75 m unit/μl) of porcine Renin (Sigma) was added to 5 μg of porcine angiotensinogen in 50 μl of 0.1 M citrate-phosphate buffer (pH 6.00) containing 0.25% NP-40. A DMSO solution containing the inhibitor (0.5 μl of a 50 μg/μl solution) was added and the reaction was allowed to incubate at room temperature for 70 min. The entire mixture was analyzed by HPLC chromatographic analysis was perforemd on a 4.6×250 mm Lichrosorb RP-18 column eluting with a gradient of 0-50% acetonitrile in 0.02 M KH2 Po4 (pH 4.7) over 30 min monitoring absorbance at 206 nm. Appearance of both the tetrapeptide and the decapeptide products may be monitored under these conditions. Enzyme activity is expressed as the amount of tetrapeptide produced relative to an uninhibited control, and are summarized in Table 3 below.

HIV-2 protease = assay: HIV protease cleavage of nonapeptide (HPLC); format: biochemical; conditions: 0.5 μl of 10 μg/μl inhibitor in DMSO per 10 μl reaction; pH 6.5, room temperature; pentapeptide product relative to DMSO control; sampled at ca. 16 and 40 hr (time not given)
Experimental: Activity Against HIV Protease
The assay for proteolyic activity is a modified version of that previously described by Copeland et al., Gene Anal. Tech., 5:109-115 (1988). For each assay to be performed 2 microliters of protease solution (ca. 100 ng) is added to 3 μg of nonapeptide (Val-Ser-Gln-Asn-Tyr-Pro-Ile-Val-Gln-NH2) in 8 μl of 200 mM sodium phosphate, 1 M NaCl, 5% glycerol, 0.25% Nonidet-40, at pH 6.5. This affords a stock solution containing 10 μl per number of reactions. This stock is aliquoted out in 10 μl portions to which 0.5 μl of DMSO (a control is run with each set of assays to compensate for minor experimental variations) or a DMSO solution containing 10 μg/μl of an inhibitor, i.e., any one of the compounds of the present invention, is added. The reactions were incubated at room temperature and 4 μl portions were removed at ca. 16 and 40 hr. intervals. HPLC analysis was performed on a 4.6×250 mm Lichrosorb RP-18 column eluted with a gradient of 0-40% acetonitrile in water (containing 0.05% TFA) over 30 min monitoring absorbance at 206 nm. Progress of the enzymatic cleavage was followed by monitoring the appearance of the pentapeptide (Val-Ser-Gln-Asn-Tyr-OH) cleavage product. The activity is expressed as the amount of the pentapeptide (Val-Ser-Gln-Asn-Tyr-OH) observed relative to the control reaction for that set of assays.
Inhibition of HIV-2 protease

HIV1 IIIb = assay: microbe, parasite or virus in culture; format: cell-based; conditions: Human immunodeficiency virus 1, IIIB; for viability at 10 µg/mL: 10 ug/ml; for viability at 23 µg/mL: 23 ug/ml; for viability at 11.5 µg/mL: 11.5 ug/ml; for viability at 31.9 µg/mL: 31.9 ug/ml; for viability at 3.9 µg/mL: 3.9 ug/ml; for viability at 1 µg/mL: 1 ug/ml; for viability at 6.3 µg/mL: 6.3 ug/ml; for viability at 31.5 µg/mL: 31.5 ug/ml; for viability at 24.6 µg/mL: 24.6 ug/ml; for viability at 27.2 µg/mL: 27.2 ug/ml
In short: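 Human host cells infected with HIV1 IIIb (virus-producing H9 cells or cell-free virus) and incubated seven days with compound. Viable cells measured by XTT formazan absorbance; response expressed as % of uninfected controls against virus kill %. Some cultures redosed after 3 days.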

[1] = 168 h, read-out: Antiviral Effect (viable cells as % of uninfected controls), run 15*, source V (cell free virus), virus kill 25.0%, culture redosed with compound after 3 days

SMILES: O=[N+]([O-])c1ccc(OCC2CO2)cc1 (centres unmarked) [1,2-Epoxy-3-(p-nitrophenoxy)propane, reference compound]
- Percent control (tetrapeptide produced) (porcine Renin): 106%
- Percent Control Cleavage of Nonapeptide HIV-1 Cleavage Site Fragment (HIV-2 protease): 18%

SMILES: CCCCCCCCC[C@H]1O[C@H]1CO [Example 11, (2S-cis)-3-Nonyloxirane Methanol]
- Percent control (tetrapeptide produced) (porcine Renin): 106%
- Percent Control Cleavage of Nonapeptide HIV-1 Cleavage Site Fragment (HIV-2 protease): 85%
- viability at 10 µg/mL (HIV1 IIIb; 168 h, read-out: Antiviral Effect (viable cells as % of uninfected controls), run 8, source V (cell free virus), virus kill 25.0%): 110%
- viability at 23 µg/mL (HIV1 IIIb; 168 h, read-out: Antiviral Effect (viable cells as % of uninfected controls), run 9, source V (cell free virus), virus kill 23.0%): 30%
- viability at 11.5 µg/mL (HIV1 IIIb; 168 h, read-out: Antiviral Effect (viable cells as % of uninfected controls), run 10, source V (cell free virus), virus kill 49.0%): 68.5%
- viability at 31.9 µg/mL (HIV1 IIIb; 168 h, read-out: Antiviral Effect (viable cells as % of uninfected controls), run 11, source V (cell free virus), virus kill 53.0%): 65.1%
- viability at 11.5 µg/mL (HIV1 IIIb; 168 h, read-out: Antiviral Effect (viable cells as % of uninfected controls), run 12, source V (cell free virus), virus kill 30.0%): 80.4%
- viability at 31.9 µg/mL (HIV1 IIIb; 168 h, read-out: Antiviral Effect (viable cells as % of uninfected controls), run 13, source V (cell free virus), virus kill 22.0%): 82.6%
- viability at 3.9 µg/mL (HIV1 IIIb; 168 h, read-out: Antiviral Effect (viable cells as % of uninfected controls), run 14, source V (cell free virus), virus kill 20.0%): 21.5%
- viability at 3.9 µg/mL (HIV1 IIIb; [1]): 32.4%
- viability at 10 µg/mL (HIV1 IIIb; H9, 168 h, read-out: Antiviral Effect (viable cells as % of uninfected controls), run 1, source C (virus producing H9 cells), virus kill 6.0%): 60.2%
- viability at 1 µg/mL (HIV1 IIIb; H9, 168 h, read-out: Antiviral Effect (viable cells as % of uninfected controls), run 2, source C (virus producing H9 cells), virus kill 25.0%): 37.5%
- viability at 23 µg/mL (HIV1 IIIb; H9, 168 h, read-out: Antiviral Effect (viable cells as % of uninfected controls), run 3, source C (virus producing H9 cells), virus kill 14.0%): 19.9%
- viability at 11.5 µg/mL (HIV1 IIIb; H9, 168 h, read-out: Antiviral Effect (viable cells as % of uninfected controls), run 4, source C (virus producing H9 cells), virus kill 12.5%): 18.1%
- viability at 31.9 µg/mL (HIV1 IIIb; H9, 168 h, read-out: Antiviral Effect (viable cells as % of uninfected controls), run 5, source C (virus producing H9 cells), virus kill 13.0%): 23.9%
- viability at 11.5 µg/mL (HIV1 IIIb; H9, 168 h, read-out: Antiviral Effect (viable cells as % of uninfected controls), run 6, source C (virus producing H9 cells), virus kill 9.0%): 12.3%
- viability at 31.9 µg/mL (HIV1 IIIb; H9, 168 h, read-out: Antiviral Effect (viable cells as % of uninfected controls), run 7, source C (virus producing H9 cells), virus kill 11.0%): 13%

SMILES: CCCCCCCCC[C@H]1O[C@H]1C(=O)O [Example 21, (2R-cis)-3-Nonyloxiranecarboxylic Acid]
- Percent control (tetrapeptide produced) (porcine Renin): 86%
- viability at 10 µg/mL (HIV1 IIIb; 168 h, read-out: Antiviral Effect (viable cells as % of uninfected controls), run 8, source V (cell free virus), virus kill 23.0%): 94%
- viability at 6.3 µg/mL (HIV1 IIIb; 168 h, read-out: Antiviral Effect (viable cells as % of uninfected controls), run 9, source V (cell free virus), virus kill 19.0%): 25.7%
- viability at 31.5 µg/mL (HIV1 IIIb; 168 h, read-out: Antiviral Effect (viable cells as % of uninfected controls), run 10, source V (cell free virus), virus kill 53.0%): 75.3%
- viability at 24.6 µg/mL (HIV1 IIIb; 168 h, read-out: Antiviral Effect (viable cells as % of uninfected controls), run 11, source V (cell free virus), virus kill 57.0%): 64.3%
- viability at 31.5 µg/mL (HIV1 IIIb; 168 h, read-out: Antiviral Effect (viable cells as % of uninfected controls), run 12, source V (cell free virus), virus kill 27.0%): 62%
- viability at 24.6 µg/mL (HIV1 IIIb; 168 h, read-out: Antiviral Effect (viable cells as % of uninfected controls), run 13, source V (cell free virus), virus kill 40.0%): 88%
- viability at 27.2 µg/mL (HIV1 IIIb; 168 h, read-out: Antiviral Effect (viable cells as % of uninfected controls), run 14, source V (cell free virus), virus kill 18.0%): 25.7%
- viability at 27.2 µg/mL (HIV1 IIIb; [1]): 28.1%
- viability at 1 µg/mL (HIV1 IIIb; H9, 168 h, read-out: Antiviral Effect (viable cells as % of uninfected controls), run 1, source C (virus producing H9 cells), virus kill 9.0%): 18.9%
- viability at 10 µg/mL (HIV1 IIIb; H9, 168 h, read-out: Antiviral Effect (viable cells as % of uninfected controls), run 2, source C (virus producing H9 cells), virus kill 22.0%): 27.3%
- viability at 6.3 µg/mL (HIV1 IIIb; H9, 168 h, read-out: Antiviral Effect (viable cells as % of uninfected controls), run 3, source C (virus producing H9 cells), virus kill 12.0%): 16.6%
- viability at 31.5 µg/mL (HIV1 IIIb; H9, 168 h, read-out: Antiviral Effect (viable cells as % of uninfected controls), run 4, source C (virus producing H9 cells), virus kill 14.0%): 19.6%
- viability at 24.6 µg/mL (HIV1 IIIb; H9, 168 h, read-out: Antiviral Effect (viable cells as % of uninfected controls), run 5, source C (virus producing H9 cells), virus kill 14.0%): 21.6%
- viability at 31.5 µg/mL (HIV1 IIIb; H9, 168 h, read-out: Antiviral Effect (viable cells as % of uninfected controls), run 6, source C (virus producing H9 cells), virus kill 12.0%): 10.7%
- viability at 24.6 µg/mL (HIV1 IIIb; H9, 168 h, read-out: Antiviral Effect (viable cells as % of uninfected controls), run 7, source C (virus producing H9 cells), virus kill 18.0%): 13%

SMILES: CCCCCCCCC[C@@H]1O[C@H]1C(=O)O [Example 35, (2R-trans)-3-Nonyloxiranecarboxylic Acid]
- Percent control (tetrapeptide produced) (porcine Renin): 72%
- Percent Control Cleavage of Nonapeptide HIV-1 Cleavage Site Fragment (HIV-2 protease): 77%

SMILES: CCCCCCCCC[C@H]1O[C@@H]1C(=O)O [Example 36, (2S-trans)-3-Nonyloxiranecarboxylic acid]
- Percent control (tetrapeptide produced) (porcine Renin): 12%
- Percent Control Cleavage of Nonapeptide HIV-1 Cleavage Site Fragment (HIV-2 protease): 12%

SMILES: CCCCCCCCCCC[C@H]1O[C@@H]1C(=O)O [Example 40, (2S-trans)-3-Undecyloxiranecarboxylic Acid]
- Percent control (tetrapeptide produced) (porcine Renin): 71%
- Percent Control Cleavage of Nonapeptide HIV-1 Cleavage Site Fragment (HIV-2 protease): 93%
